Reference: ChEMBL document CHEMBL1201862, “PubChem BioAssay data set” (2004)
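Dose response: 5 concentrations. Exposure: 48 h. Format: 96-well plates. Endpoint: linear interpolation; highest concentration if not reached. GI50 is the concentration that inhibits growth by half.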 Activity calls are given as the source filed them. Rule as the data show it: active = GI50 up to about 1.1 µM and inactive = higher.

Experiments:
Experiment in all cases: inhibition of tumour cell growth, NCI panel, 48 h
DMS-273 = tested on: DMS-273
OVCAR-4 = tested on: OVCAR-4
CCRF-CEM = tested on: CCRF-CEM
DMS-114 = tested on: DMS-114
NCI-H522 = tested on: NCI-H522
SNB-19 = tested on: SNB-19
UACC-257 = tested on: UACC-257
SNB-78 = tested on: SNB-78
HT-29 = tested on: HT-29
SK-MEL-2 = tested on: SK-MEL-2
OVCAR-5 = tested on: OVCAR-5
786-0 = tested on: 786-0
OVCAR-8 = tested on: OVCAR-8
Malme-3M = tested on: Malme-3M
U-251 = tested on: U-251
SK-MEL-5 = tested on: SK-MEL-5
COLO 205 = tested on: COLO 205
A498 = tested on: A498
NCI/ADR-RES = tested on: NCI/ADR-RES
MDA-MB-231 = tested on: MDA-MB-231

Row | SMILES | GI50 (DMS-273) | GI50 (OVCAR-4) | GI50 (CCRF-CEM) | GI50 (DMS-114) | GI50 (NCI-H522) | GI50 (SNB-19) | GI50 (UACC-257) | GI50 (SNB-78) | GI50 (HT-29) | GI50 (SK-MEL-2) | GI50 (OVCAR-5) | GI50 (786-0) | GI50 (OVCAR-8) | GI50 (Malme-3M) | GI50 (U-251) | GI50 (SK-MEL-5) | GI50 (COLO 205) | GI50 (A498) | GI50 (NCI/ADR-RES) | GI50 (MDA-MB-231)
1 | COc1cc(/C=C(\C#N)C(=O)c2ccccc2)cc(OC)c1OC | > 100 µM (inactive) | > 100 µM (inactive) | > 100 µM (inactive) | > 100 µM (inactive) | > 100 µM (inactive) | > 100 µM (inactive) | > 100 µM (inactive) | > 100 µM (inactive) | > 100 µM (inactive) | > 100 µM (inactive) | > 100 µM (inactive) | > 100 µM (inactive) | > 100 µM (inactive) | > 100 µM (inactive) | > 100 µM (inactive) | > 100 µM (inactive) | > 100 µM (inactive) | – | – | –
2 | CC1CC(=O)Nc2ccc(Cl)cc2N1C(=O)CN1CCC(CCCCN(C)C)CC1 (stereo unspecified) | > 100 µM (inactive) | > 100 µM (inactive) | > 100 µM (inactive) | > 100 µM (inactive) | – | > 100 µM (inactive) | > 100 µM (inactive) | – | > 100 µM (inactive) | – | > 100 µM (inactive) | > 100 µM (inactive) | > 100 µM (inactive) | > 100 µM (inactive) | > 100 µM (inactive) | > 100 µM (inactive) | > 100 µM (inactive) | > 100 µM (inactive) | – | –
3 | O=C(O)CCSC(=O)Nc1ccccc1 | > 100 µM (inactive) | > 100 µM (inactive) | > 100 µM (inactive) | – | – | > 100 µM (inactive) | > 100 µM (inactive) | > 100 µM (inactive) | > 100 µM (inactive) | > 100 µM (inactive) | > 100 µM (inactive) | > 100 µM (inactive) | > 100 µM (inactive) | – | > 100 µM (inactive) | – | > 100 µM (inactive) | > 100 µM (inactive) | – | –
4 | COC(=O)C(=O)C1(CCC(C)=O)c2ccccc2-c2ccccc21 | 43.6 µM (inactive) | > 100 µM (inactive) | 63.2 µM (inactive) | 65.5 µM (inactive) | 69.2 µM (inactive) | > 100 µM (inactive) | 55.2 µM (inactive) | – | 79.8 µM (inactive) | 83.4 µM (inactive) | > 100 µM (inactive) | 85.1 µM (inactive) | 99.8 µM (inactive) | 49.7 µM (inactive) | 68.5 µM (inactive) | 35.7 µM (inactive) | 76.9 µM (inactive) | 88.5 µM (inactive) | – | –
5 | OCC(O)C(O)C(O)c1nn(-c2ccc(Cl)cc2)c2nc3cc(Cl)c(Cl)cc3nc12 (stereo unspecified) | > 100 µM (inactive) | > 100 µM (inactive) | 52.1 µM (inactive) | 94.4 µM (inactive) | 27.1 µM (inactive) | 33.7 µM (inactive) | 86.3 µM (inactive) | 20.7 µM (inactive) | > 100 µM (inactive) | 24.8 µM (inactive) | > 100 µM (inactive) | 65.6 µM (inactive) | 22.5 µM (inactive) | 15.2 µM (inactive) | 57.5 µM (inactive) | – | > 100 µM (inactive) | – | – | –
6 | CN(C)c1ccc(/C=C/C(=O)c2ccccc2)cc1Br | – | 15.5 µM (inactive) | 20.5 µM (inactive) | 17.3 µM (inactive) | 15 µM (inactive) | 18.8 µM (inactive) | 22.3 µM (inactive) | – | 19.7 µM (inactive) | 18.4 µM (inactive) | 49.3 µM (inactive) | 17.2 µM (inactive) | 23.2 µM (inactive) | 17.6 µM (inactive) | 18.5 µM (inactive) | 18.4 µM (inactive) | 18.3 µM (inactive) | > 100 µM (inactive) | – | –
7 | Cn1c(CCC#N)nc2ccc(Br)cc2c1=O | – | > 100 µM (inactive) | 51.9 µM (inactive) | > 100 µM (inactive) | > 100 µM (inactive) | – | > 100 µM (inactive) | – | > 100 µM (inactive) | > 100 µM (inactive) | > 100 µM (inactive) | > 100 µM (inactive) | > 100 µM (inactive) | > 100 µM (inactive) | > 100 µM (inactive) | > 100 µM (inactive) | > 100 µM (inactive) | > 100 µM (inactive) | – | –
8 | CCN(CC)C1=Nc2ccccc2-n2c(C)cnc2C1 | – | > 100 µM (inactive) | > 100 µM (inactive) | – | > 100 µM (inactive) | > 100 µM (inactive) | > 61.5 µM (inactive) | – | > 100 µM (inactive) | > 100 µM (inactive) | > 100 µM (inactive) | > 100 µM (inactive) | > 100 µM (inactive) | > 100 µM (inactive) | > 100 µM (inactive) | > 100 µM (inactive) | > 100 µM (inactive) | > 100 µM (inactive) | > 100 µM (inactive) | > 100 µM (inactive)
9 | COC(=O)C(CC=O)C(=O)C(=O)Nc1cccc(C(F)(F)F)c1 (stereo unspecified) | – | > 100 µM (inactive) | > 100 µM (inactive) | > 100 µM (inactive) | > 100 µM (inactive) | > 100 µM (inactive) | > 100 µM (inactive) | > 100 µM (inactive) | > 100 µM (inactive) | > 100 µM (inactive) | > 100 µM (inactive) | > 100 µM (inactive) | > 100 µM (inactive) | > 100 µM (inactive) | > 100 µM (inactive) | > 100 µM (inactive) | – | – | – | –
10 | CC(=O)O/C(=C(/C#N)C(=O)O)C1C(C(=O)O)C(c2ccccc2[N+](=O)[O-])C=C(c2ccco2)N1c1ccncc1 (stereo unspecified) | – | 14.3 µM (inactive) | 2.43 µM (inactive) | – | 2.09 µM (inactive) | 11.8 µM (inactive) | 3.9 µM (inactive) | – | 1.61 µM (inactive) | 9.25 µM (inactive) | 7.89 µM (inactive) | 2.82 µM (inactive) | 5.02 µM (inactive) | 8.43 µM (inactive) | 2.11 µM (inactive) | 2.94 µM (inactive) | 3.41 µM (inactive) | 11.2 µM (inactive) | 8.57 µM (inactive) | 4.78 µM (inactive)
11 | CN1[C@@H]2CCCC[C@H]2N(C)P1(=O)C(O)/C=C/c1ccccc1 (stereo partly specified) | – | > 100 µM (inactive) | > 100 µM (inactive) | – | > 100 µM (inactive) | > 100 µM (inactive) | > 100 µM (inactive) | – | > 100 µM (inactive) | > 100 µM (inactive) | > 100 µM (inactive) | > 100 µM (inactive) | > 100 µM (inactive) | > 100 µM (inactive) | > 100 µM (inactive) | > 100 µM (inactive) | > 100 µM (inactive) | > 100 µM (inactive) | > 100 µM (inactive) | > 100 µM (inactive)
12 | CCOP(=O)(OCC)/C(F)=C/c1ccc(F)cc1 | – | > 100 µM (inactive) | > 100 µM (inactive) | – | > 100 µM (inactive) | > 100 µM (inactive) | > 100 µM (inactive) | – | > 100 µM (inactive) | > 100 µM (inactive) | > 100 µM (inactive) | > 100 µM (inactive) | > 100 µM (inactive) | > 100 µM (inactive) | > 100 µM (inactive) | > 100 µM (inactive) | > 100 µM (inactive) | > 100 µM (inactive) | > 100 µM (inactive) | > 100 µM (inactive)
13 | COC(=O)CN1C(=O)C2(C(=O)OC)OC1(c1ccc([N+](=O)[O-])cc1)C1C(=O)N(c3ccccc3)C(=O)C12 (stereo unspecified) | – | > 100 µM (inactive) | > 100 µM (inactive) | – | > 100 µM (inactive) | > 100 µM (inactive) | > 100 µM (inactive) | – | > 100 µM (inactive) | > 100 µM (inactive) | > 100 µM (inactive) | > 100 µM (inactive) | > 100 µM (inactive) | > 100 µM (inactive) | > 100 µM (inactive) | > 100 µM (inactive) | > 100 µM (inactive) | > 100 µM (inactive) | > 100 µM (inactive) | > 100 µM (inactive)
14 | CC(=O)OCC12C(OC(C)=O)C[C@@H](C)C3(CC(c4ccoc4)OC3=O)C1CCC(OC(C)=O)C21CO1 (stereo partly specified) | – | > 100 µM (inactive) | > 100 µM (inactive) | – | > 100 µM (inactive) | > 100 µM (inactive) | > 100 µM (inactive) | – | > 100 µM (inactive) | > 100 µM (inactive) | > 100 µM (inactive) | > 100 µM (inactive) | > 100 µM (inactive) | > 100 µM (inactive) | > 100 µM (inactive) | > 100 µM (inactive) | > 100 µM (inactive) | > 100 µM (inactive) | > 100 µM (inactive) | > 100 µM (inactive)
15 | CCCN(CCCCN1C(=O)c2ccccc2C1=O)CC1COc2ccccc2O1 (stereo unspecified) | – | > 100 µM (inactive) | 25.8 µM (inactive) | – | > 100 µM (inactive) | > 100 µM (inactive) | 65.9 µM (inactive) | – | 33.6 µM (inactive) | > 100 µM (inactive) | > 100 µM (inactive) | > 100 µM (inactive) | > 100 µM (inactive) | > 100 µM (inactive) | 74 µM (inactive) | 28.6 µM (inactive) | 50.1 µM (inactive) | > 100 µM (inactive) | 61.1 µM (inactive) | > 100 µM (inactive)
16 | COc1ccc(C2C3=C(COC3=O)Oc3cc4c(cc32)OCO4)cc1OC (stereo unspecified) | – | 37.9 µM (inactive) | 0.428 µM (active) | – | 0.437 µM (active) | 0.716 µM (active) | 6.87 µM (inactive) | – | 0.395 µM (active) | 0.679 µM (active) | 8.97 µM (inactive) | 1.04 µM (active) | 4.05 µM (inactive) | 0.682 µM (active) | 0.785 µM (active) | 0.489 µM (active) | 0.879 µM (active) | 0.352 µM (active) | 0.33 µM (active) | 3.4 µM (inactive)
17 | N#CC(C#N)=C1NN=C(Cl)c2ccccc21 | > 100 µM (inactive) | > 100 µM (inactive) | 88.1 µM (inactive) | > 100 µM (inactive) | 72.1 µM (inactive) | – | 98.6 µM (inactive) | – | > 100 µM (inactive) | > 100 µM (inactive) | > 100 µM (inactive) | > 100 µM (inactive) | > 100 µM (inactive) | 30.3 µM (inactive) | 96.4 µM (inactive) | > 100 µM (inactive) | > 100 µM (inactive) | – | – | –
